Here are results for one compound from patent US20260102388A1 (priority 2022, published 2026).

Structures are written as SMILES.

In this data set the test system is SD rats. In words: Effect of compound implant of naltrexone on spontaneous activity. Conditions: implants 3 tablets/animal (diazepam 2 mg/kg), 60 min recording, X ± SEM.

Procedure: Test animals: SPF-grade Sprague-Dawley (SD) rats, weighing 200±20 g, and they were fed adaptively.
Animal grouping and administration: Animals were divided into 8 groups with 12 animals in each group, half male and half female. In the experiment, animals were divided into positive control group (diazepam group, with a dose of 2 mg/kg), negative control group (normal saline), Example 1 group, Example 2 group, Comparative Example 2 group, Comparative Example 4 group, Comparative Example 5 group (dose: 3 tablets/animal), and fasten for 12 h before administration. The dosage volume for rats was 10 mL/kg.
The experiment was divided into three periods: adaptation period, pre-testing period and post-administration testing period. […]
Open field adaptation: After environmental adaptation, single rat/mouse was put into a spontaneous activity box for 60 min to adapt to the experiment box, and the spontaneous activity within 60 min was recorded, the general adaptation was 2-3 days to reduce the impact of environmental stimulation.
Baseline test: Single rat/mouse was put into a spontaneous activity box for 40 min to adapt to the experimental box, and spontaneous activity within 40 min was recorded, then divided equally to groups according to basic spontaneous activity. […]
Data were expressed as Mean±SEM. […]

`CN1C(=O)CN=C(c2ccccc2)c2cc(Cl)ccc21` [Positive control group, diazepam]: the “total distance of activity” value is reported as 9698.94 ± 902.16 mm.
